Results from PubChem BioAssay (NCI).
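In this assay, cells in 96-well plates receive the compound at five concentrations for 48 hours. Endpoints are linearly interpolated between the surrounding concentrations. The concentration for 50% growth inhibition is given as GI50. At the TGI there is no net growth.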

Key:
Test in all cases: growth of human tumour cells (NCI), 48 h
SK-MEL-2 melanoma = tested on: SK-MEL-2 melanoma
NCI-H23 lung = tested on: NCI-H23 lung
U251 CNS = tested on: U251 CNS
HT29 colon = tested on: HT29 colon
HCT-116 colon = tested on: HCT-116 colon
SF-268 CNS = tested on: SF-268 CNS
SK-MEL-28 melanoma = tested on: SK-MEL-28 melanoma
RPMI-8226 leukemia = tested on: RPMI-8226 leukemia
COLO 205 colon = tested on: COLO 205 colon
EKVX NSCLC = tested on: EKVX NSCLC

Row | Compound | TGI (SK-MEL-2 melanoma) [µM] | TGI (NCI-H23 lung) [µM] | TGI (U251 CNS) [µM] | TGI (HT29 colon) [µM] | TGI (HCT-116 colon) [µM] | TGI (SF-268 CNS) [µM] | TGI (SK-MEL-28 melanoma) [µM] | TGI (RPMI-8226 leukemia) [µM] | TGI (COLO 205 colon) [µM] | TGI (EKVX NSCLC) [µM] | GI50 (SK-MEL-2 melanoma) [µM] | GI50 (NCI-H23 lung) [µM] | GI50 (U251 CNS) [µM] | GI50 (HT29 colon) [µM] | GI50 (HCT-116 colon) [µM] | GI50 (SF-268 CNS) [µM] | GI50 (SK-MEL-28 melanoma) [µM] | GI50 (RPMI-8226 leukemia) [µM] | GI50 (COLO 205 colon) [µM] | GI50 (EKVX NSCLC) [µM]
1 | CSC(C1c2ccccc2N(c2ccc(C)cc2)C2=NC(=O)N(C)C(=O)C21Cl)S(=O)(=O)c1ccc(C)cc1 (stereo not given) | 38.9 | 46.9 | 38.9 | 57 | 25.7 | 62.5 | 45.1 | 57 | 36.6 | > 100 |  |  |  |  |  |  |  |  |  | 
2 | O=C1Nc2c(C(F)(F)F)cccc2[C@]1(c1ccc(O)cc1)c1ccc(OC(F)(F)F)cc1 | 28.2 | 26.4 | 24.6 | 28.9 | 23.9 | 24 | 28.8 | 59.1 | 25.4 | 21.6 | 12.6 | 11 | 11.1 | 10.3 | 7.73 | 8.73 | 15 | 10.4 | 3.26 | 8.09
3 | O=C1CCC2(c3ccc(F)cc3)Nc3cc(Cl)ccc3N12 (stereo not given) | > 100 | > 100 | > 100 | > 100 | > 100 | > 100 | > 100 | > 100 | > 100 | > 100 |  |  |  |  |  |  |  |  |  | 
4 | CC(C)(CC(=O)Nc1ccccc1)C(=O)O | > 100 | > 100 | > 100 | > 100 | > 100 |  | > 100 | > 100 | > 100 | > 100 |  |  |  |  |  |  |  |  |  | 
5 | Oc1ccc(CN2CCC(N3CCCCC3)CC2)c2cccnc12 | > 100 | > 100 | > 100 | > 100 | > 100 | > 100 | > 100 | > 100 | > 100 | > 100 | 27.9 | 6.05 | 5.57 | 93.7 | 4.49 | 7.06 | 21.4 | 6.33 | 48.4 | 32.4
6 | OCC(O)CC[CH2][Sn]([Br])([c]1ccccc1)[c]1ccccc1 (stereo not given) | > 100 | > 100 | > 100 | > 100 | > 100 |  |  | > 100 | > 100 | > 100 | > 100 | > 100 | > 100 | > 100 | > 100 |  |  | > 100 | > 100 | > 100
7 | CCOc1cc2c(Cl)ncnc2c(OCC)c1OCC | 10.3 | 24.2 | 19.6 | 32.9 | 11.9 | 7.9 | 5.26 | 20.6 | 25.5 | 29.5 | 3.61 | 7.71 | 7 | 7.59 | 3.39 | 2.84 | 2.15 | 3.29 | 12.2 | 13.3
8 | COc1cc(C2=C(c3ccccc3)COC2=O)cc(OC)c1OC | > 100 | > 27.7 | > 100 | 97.5 | > 38.1 | > 76.5 | > 100 | 5.28 | 6.69 | > 100 | 7.81 | 2.41 | 5.86 | 3.13 | 2.29 | 2.39 | > 100 | 1.12 | 0.834 | > 31.8
9 | CCOC(=O)[C]1([Bi]([CH3])[CH3])N=NC(C(=O)OC)=C1C(=O)OC (stereo not given) | 33.7 | 35 | > 100 | 39.4 |  | 31.7 | 30.4 | 67.2 | 35.9 | 36.5 | 18.3 | 18 | > 100 | 19.3 |  | 17.2 | 16.2 | 21.5 | 19.8 | 18.7
10 | COC(=O)C1Cc2c(n(Cc3ccccc3)c3ccccc23)C(CCC(=O)O)N1C(C)C (stereo not given) | > 100 | > 100 | > 100 | > 100 | > 100 | > 100 | > 100 |  | > 100 | > 100 |  |  |  |  |  |  |  |  |  | 
11 | COC1/C=C\C=C(/C)C(=O)NC2=CC(=O)C(=O)C(=C2O)CC(C)CC(OC)C(O)C(C)/C=C(\C)C1OC(N)=O (stereo not given) | > 60.5 | > 100 | > 40.3 | 17.8 | 14.4 | > 58.9 | > 49.3 | 33.5 | 13.3 | 32.7 |  |  |  |  |  |  |  |  |  | 
12 | O=C(/C(Br)=C/c1ccccc1)c1ccccc1 | 7.38 | 8.38 | 4.4 |  | 3.12 | 16.7 | 23.1 | 7.07 | 2.41 | 23.3 | 3.17 | 2.71 | 1.83 |  | 1.64 | 4.56 | 5.31 | 2.41 | 1.09 | 10.6
13 | O=C(/C=C/c1c(O)ccc2ccccc12)c1cccc(O)c1 | > 100 | > 100 | > 100 | > 100 | > 100 | > 100 | > 100 | > 100 | > 100 | > 100 |  |  |  |  |  |  |  |  |  | 
14 | O=C(O)CNS(=O)(=O)c1ccc(NCc2ccccc2)cc1 | > 100 | > 100 | > 100 | > 100 | > 100 | > 100 | > 100 | > 100 | > 100 | > 100 |  |  |  |  |  |  |  |  |  | 
15 | COc1ccc(-c2cc(=O)c3ccc(O)cc3o2)cc1OC | > 100 | > 100 | > 100 | > 100 | > 100 | > 100 | > 100 | > 100 | > 100 | > 100 |  |  |  |  |  |  |  |  |  | 
16 | COc1ccc(/C=C/c2nccc3ccccc23)cc1OC | > 10 | > 10 | > 10 | > 10 | > 10 | > 10 | > 10 | > 10 | > 10 | > 10 |  |  |  |  |  |  |  |  |  | 
17 | CCOC(=O)C1=C(OC(OCC)C(CC)[Se]c2ccccc2)CCCC1 (stereo not given) | 43 | 25.5 | 31 | 62 | 45 | 41.6 | > 100 | 39.3 | > 100 | 78.9 |  |  |  |  |  |  |  |  |  | 
